Patent publication US4948783A, “Anticariogenic or antiperidontitic method” (Kabushiki Kaisya Advance Kaihatsu kenkyujo, priority 1985, dated 1990)
Values after ≈ are worked out from the molar mass of the structure shown. Like-named read-outs stand apart in the source and are kept apart here. Values belong to the molecule of their own block, whether it stands above or below them.

Tests used:
[1] = test system: S. mutans; assay: Antibacterial activity (MIC) against S. mutans; format: cell-based, Streptococcus mutans (isolated from a human oral cavity); details: Streptococcus mutans
Protocol: (§1) A sample of vitamin L2 (methylthioadenosine) (Sigma Chemical Company) having the chemical formula shown below was dissolved in water, [drawing 3] the pH was adjusted to 7, and sterilization was carried out by autoclaving at 121° C. for 15 min or by filtration with membrane filters, to form a sterile solution. This sample solution mentioned above was added into a sterile basal medium (refer to Table 1) together with sterile distilled water to adjust the concentration of the sample. To this medium, S. mutans causing dental caries, Actinomyces naeslundii and A. viscosus causing dental caries and periondontitis, and B. gingivalis and Fusobacterium nucleatum causing periodontitis, each bacterium being isolated from a human oral cavity, were repectively inoculated. After incubation at 37° C. for 24 hrs, the MIC (minimal growth-inhibitoryconcentration: μg/ml) against each bacterium was determined. As a control, a 0.85% NaCl solution was used instead of the sample solution of vitamin L2. Furthermore, the effect of vitamin L2 on intestinal bacteria such as S. faecium, S. faecalis, Bifidobacterium bifidum, Lactobacillus acidophilus, and L. fermentum, isolated from the feces of healthy humans, was also determined by the same procedures.

[2] = test system: B. gingivalis; assay: Antibacterial activity (MIC) against B. gingivalis; format: cell-based, Bacteroides gingivalis (isolated from a human oral cavity); details: for MIC: Porphyromonas gingivalis
Protocol: as §1

[3] = test system: Bif. bifidum; assay: Effect on intestinal bacteria (MIC), Bif. bifidum; format: cell-based; details: Bifidobacterium bifidum, GAM broth, 37° C., 24 hrs, read-out: MIC (minimal growth-inhibitory concentration)
Protocol: as §1

[4] = test system: S. faecium; assay: Effect on intestinal bacteria (MIC), S. faecium; format: cell-based, S. faecium (isolated from the feces of healthy humans); details: Enterococcus faecium, Todd-Hewitt broth, 37° C., 24 hrs, read-out: MIC (minimal growth-inhibitory concentration)
Protocol: as §1

[5] = test system: F. nucleatum; assay: Antibacterial activity (MIC) against F. nucleatum; format: cell-based, Fusobacterium nucleatum (isolated from a human oral cavity); details: Fusobacterium nucleatum, GAM broth, 37° C., 24 hrs, read-out: MIC (minimal growth-inhibitory concentration)
Protocol: as §1

[6] = test system: L. fermentum; assay: Effect on intestinal bacteria (MIC), L. fermentum; format: cell-based, L. fermentum (isolated from the feces of healthy humans); details: Limosilactobacillus fermentum, Rogosa broth, 37° C., 24 hrs, read-out: MIC (minimal growth-inhibitory concentration)
Protocol: as §1

[7] = test system: L. acidophilus; assay: Effect on intestinal bacteria (MIC), L. acidophilus; format: cell-based; details: Lactobacillus acidophilus, Rogosa broth, 37° C., 24 hrs, read-out: MIC (minimal growth-inhibitory concentration)
Protocol: as §1

[8] = test system: S. faecalis; assay: Effect on intestinal bacteria (MIC), S. faecalis; format: cell-based, S. faecalis (isolated from the feces of healthy humans); details: Enterococcus faecalis, Todd-Hewitt broth, 37° C., 24 hrs, read-out: MIC (minimal growth-inhibitory concentration)
Protocol: as §1

[9] = test system: A. viscosus; assay: Antibacterial activity (MIC) against A. viscosus; format: cell-based, A. viscosus (isolated from a human oral cavity); details: Actinomyces viscosus, Brain heart infusion broth, 37° C., 24 hrs, read-out: MIC (minimal growth-inhibitory concentration)
Protocol: as §1

[10] = test system: A. naeslundii; assay: Antibacterial activity (MIC) against A. naeslundii; format: cell-based, Actinomyces naeslundii (isolated from a human oral cavity); details: Actinomyces naeslundii, Brain heart infusion broth, 37° C., 24 hrs, read-out: MIC (minimal growth-inhibitory concentration)
Protocol: as §1

[11] = 24 h, S. mutans, same procedures as in Example 1, read-out: MIC, S. mutans (Table 3)
[12] = 24 h, B. gingivalis, same procedures as in Example 1, read-out: MIC, B. gingivalis (Table 3)
[13] = 24 h, read-out: MIC, S. mutans (Table 3)

Structure (SMILES): Nc1nc(Cl)nc2c1ncn2[C@@H]1O[C@H](CO)[C@@H](O)[C@H]1O [Material (4), 2-chloroadenosine]
MIC [1, 11]: 1000 µg/mL (≈ 3310 µM) | MIC [2, 12]: 250 µg/mL (≈ 829 µM)

Structure (SMILES): CC(C)CSC[C@H]1O[C@@H](n2cnc3c(N)ncnc32)[C@H](O)[C@@H]1O [Material (5), (5'-deoxy) isobutylthioadenosine]
MIC [1, 11]: 1500 µg/mL (≈ 4420 µM) | MIC [2, 12]: 250 µg/mL (≈ 737 µM)

Structure (SMILES): Nc1ncnc2c1ncn2[C@@H]1O[C@H](CO)[C@@H](O)[C@H]1O [Material (6), adenosine]
MIC [1, 13]: 1000 µg/mL (≈ 3740 µM) | MIC, B. gingivalis (Table 3) ([2]; B. gingivalis, same procedures as in Example 1): No inhibition

Structure (SMILES): Nc1ncnc2c1ncn2[C@@H]1O[C@H](CO)[C@@H](O)[C@@H]1O [Material (7), spongoadenosine]
MIC [1, 13]: 1500 µg/mL (≈ 5610 µM) | MIC ([2]; 24 h, read-out: MIC, B. gingivalis (Table 3)): 16 µg/mL (≈ 59.9 µM)

Structure (SMILES): C[C@H]1O[C@@H](n2cnc3c(N)ncnc32)[C@H](O)[C@@H]1O [Material (8), 5'-deoxyadenosine]
MIC [1, 11]: 1000 µg/mL (≈ 3980 µM) | MIC [2, 12]: 125 µg/mL (≈ 498 µM)

Structure (SMILES): CSC[C@H]1O[C@@H](n2cnc3c(N)ncnc32)[C@H](O)[C@@H]1O [vitamin L2, methylthioadenosine]
MIC [3]: > 1000 µg/mL | MIC [4]: > 1000 µg/mL | MIC ([1]; S. mutans, Todd-Hewitt broth, 37° C., 24 hrs, read-out: MIC (minimal growth-inhibitory concentration)): 63 µg/mL (≈ 212 µM) | MIC [5]: 500 µg/mL (≈ 1680 µM) | MIC [6]: 1000 µg/mL (≈ 3360 µM) | MIC ([2]; B. gingivalis, GAM broth, 37° C., 24 hrs, read-out: MIC (minimal growth-inhibitory concentration)): 125 µg/mL (≈ 420 µM) | MIC [7]: > 1000 µg/mL | MIC [8]: > 1000 µg/mL | MIC [9]: 63 µg/mL (≈ 212 µM) | MIC [10]: 32 µg/mL (≈ 108 µM)

More lines, now with the values ahead:

MIC [1, 11]: 250 µg/mL (≈ 875 µM) | MIC [2, 12]: 125 µg/mL (≈ 438 µM)
Structure (SMILES): Nc1ncnc2c1ncn2[C@@H]1O[C@H](CCl)[C@@H](O)[C@H]1O [Material (1), 5'-deoxy-5'-chloroadenosine]

MIC [1, 11]: 1000 µg/mL (≈ 3560 µM) | MIC [2, 12]: 250 µg/mL (≈ 889 µM)
Structure (SMILES): CNc1ncnc2c1ncn2[C@@H]1O[C@H](CO)[C@@H](O)[C@H]1O [Material (2), N-6 methyladenosine]

MIC [1, 11]: 1000 µg/mL (≈ 2800 µM) | MIC [2, 12]: 250 µg/mL (≈ 700 µM)
Structure (SMILES): OC[C@H]1O[C@@H](n2cnc3c(NCc4ccccc4)ncnc32)[C@H](O)[C@@H]1O [Material (3), N-6 benzyladenosine]
